Data: patent US20210145801A1, “THERAPY FOR PROTEIN MISFOLDING DISEASE” (WREN THERAPEUTICS LIMITED, priority 2018, published 2021)
Where two headings read alike, the source gives them in different places.

Key:
Aβ42 fibrils = biological target: T1, Aβ42 fibrils (Homo sapiens, UniProt P05067); assay: Dot blot assay with fibril-specific OC antibody; type: biochemical; conditions: 2 μM Aβ42; 5-fold excess of compound; eight time points
T1 construct: made in house; host or cells: E. coli BL21 Gold (DE3)
Method: Blotting was performed using Aβ42 fibril-specific antibody (OC, Millipore). During the time course of the aggregation of a 2 μM Aβ42 in the absence and in the presence of 5-fold excess of Netoglitazone, 4 μL Aβ42 aliquots were removed from the mixture at different time points for blotting with OC. Aβ42 aliquots were spotted onto a nitrocellulose membrane (0.2 μm, Whatman) and then the membranes were dried and then blocked with Blocking One (Nacalai tesque) before immuno-detection. OC was used according to the manufacturer's instructions. Alexa Fluor® 488-conjugated secondary antibodies (Life technologies) were subsequently added and fluorescence detection was performed using Typhoon Trio Imager (GE Healthcare).

[1] = tested on: N2 control (healthy) worms; assay: Automated motility assay in healthy control worms; type: in vivo, C. elegans; conditions: same concentration range as in AD worms
Method: Standard conditions were used for the propagation of C. elegans (S. Brenner, The genetics of Caenorhabditis elegans. Genetics. 77, 71-94 (1974)). Briefly, the animals were synchronized by hypochlorite bleaching, hatched overnight in M9 buffer (3 g/l KH2PO4, 6 g/l Na2HPO4, 5 g/l NaCl, […]), and subsequently cultured at 20° C. on nematode growth medium (NGM) (CaCl2) 1 mM, MgSO4 1 mM, cholesterol 5 μg/mL, PBS Buffer (250 μM KH2PO4, 67.5 μM KCl, 3.425 mM of NaCl, pH 6), Agar 17 g/L, NaCl 3 g/1, casein 7.5 g/l) plates seeded with the E. coli strain OP50. […]
All C. elegans populations were cultured at 20° C. and developmentally synchronized from a 4 h egg-lay. At 64-72 h post-egg-lay (time zero), individuals were transferred to FUDR plates, and body movements were assessed over the times indicated. At different ages, the animals were washed off the plates with M9 buffer and spread over an OP-50 unseeded 9 cm plate, after which their movements were recorded at 20 fps using a recently developed microscopic procedure (M. Perni et al., Massively parallel C. elegans tracking provides multi-dimensional fingerprints for phenotypic discovery. J. Neurosci. Methods. 306, 57-67 (2018)) for 1 min. Up to 600 animals were counted in each experiment in duplicate unless stated otherwise. […]

AD worms (GMC101) = conditions: GMC101, C. elegans, in vivo
Method: Briefly, Netoglitazone stocks (5 mM in 100% DMSO) were used at an appropriate concentration to seed 9-cm NGM plates. Plates were then placed in a laminar flow hood at room temperature (22° C.) for up to 4 hours to dry. C. elegans cultures were then transferred onto media seeded with compound as L4 stage or Day 3 for late treatments and incubated at 24° for the whole experiment. Experiments were carried out at different Netoglitazone concentrations ranging from 0.05 to 500 μM in 1% DMSO. As controls, plates seeded only with 1% DMSO were used.

[2] = Brain microdialysis time course study (striatum); type: in vivo, male C57BL/6 mice; conditions: 15 mg/kg po; for Netoglitazone (ng/ml) in microdialysate / Netoglitazone (ng/ml) corrected for recovery: striatum; for Netoglitazone (ng/ml) corrected for recovery: recovery 0.11; for concentration at 6 h: terminal sample shortly after 6 hours
Method: To further assess the free drug exposure in the CNS following dosing of Netoglitazone an in vivo surgical microdialysis time course study was performed. Microdialysis is a minimally-invasive sampling technique that is used for continuous measurement of free, unbound analyte concentrations in the extracellular fluid of virtually any tissue (e.g. ISF in the brain). The microdialysis technique requires the insertion of a small microdialysis catheter (also referred to as microdialysis probe) into the tissue of interest. The microdialysis probe is designed to mimic a blood capillary and consists of a shaft with a semipermeable hollow fiber membrane at its tip, which is connected to inlet and outlet tubing. The probe is continuously perfused with an aqueous solution (perfusate) that closely resembles the (ionic) composition of the surrounding tissue fluid at a low flow rate of approximately 0.1-5 μL/min. Once inserted into the tissue or (body)fluid of interest, small solutes can cross the semipermeable membrane by passive diffusion. The direction of the analyte flow is determined by the respective concentration gradient and allows the usage of microdialysis probes as sampling as well as delivery tools. The solution leaving the probe (dialysate) is collected at certain time intervals for analysis. It is widely recognised as the ‘gold standard’ technique for measuring free drug levels in the CNS. Briefly, 3 male C57BL/6 mice (18 weeks old) were surgically prepared with one cannula in the brain to allow for microdialysis sampling from the striatum. Animals were allowed one day to recover and then habituated to the microdialysis cages overnight. On the study day, a microdialysis probe was inserted through the implanted cannula. […] At the end of the experiment animals were anaesthetised and terminal blood and brain samples collected.

T1 sequence (P05067 671-713): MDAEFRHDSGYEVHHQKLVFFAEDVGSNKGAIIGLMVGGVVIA

## O=C1NC(=O)C(Cc2ccc3cc(OCc4ccccc4F)ccc3c2)S1 (centres unmarked) [Netoglitazone]
Aβ42 fibrils
  Delay of Aβ42 fibril formation in dot-blot assay: identical within experimental error to that observed in the ThT-based assay
[1]
  Effect on mobility of healthy worms: negligible compared to the observed effect in AD worms
AD worms (GMC101)
  Maximum tolerable dose in AD worms: less than 50 μM
[2]
  Crossing of the blood-brain barrier after oral administration: readily crosses the blood-brain barrier
[2]; post administration
  First microdialysate fraction in which compound could be detected: 30 to 60 min
[2]; 0-30 min after dose
  Netoglitazone (ng/ml) in microdialysate: <LLOQ
  Netoglitazone (ng/ml) corrected for recovery: <LLOQ
[2]; 30-60 min after dose
  Netoglitazone (ng/ml) in microdialysate: 0.4 ng/mL
  Netoglitazone (ng/ml) corrected for recovery: 3.6 ng/mL
[2]; 60-90 min after dose
  Netoglitazone (ng/ml) in microdialysate: 0.5 ng/mL
  Netoglitazone (ng/ml) corrected for recovery: 4.5 ng/mL
[2]; 90-120 min after dose
  Netoglitazone (ng/ml) in microdialysate: 0.7 ng/mL
  Netoglitazone (ng/ml) corrected for recovery: 6.4 ng/mL
[2]; 120-150 min after dose
  Netoglitazone (ng/ml) in microdialysate: 0.9 ng/mL
  Netoglitazone (ng/ml) corrected for recovery: 8.2 ng/mL
[2]; 150-180 min after dose
  Netoglitazone (ng/ml) in microdialysate: 1.1 ng/mL
  Netoglitazone (ng/ml) corrected for recovery: 10.0 ng/mL
[2]; 180-210 min after dose
  Netoglitazone (ng/ml) in microdialysate: 1.3 ng/mL
  Netoglitazone (ng/ml) corrected for recovery: 11.8 ng/mL
[2]; 210-240 min after dose
  Netoglitazone (ng/ml) in microdialysate: 1.5 ng/mL
  Netoglitazone (ng/ml) corrected for recovery: 13.6 ng/mL
[2]; 240-270 min after dose
  Netoglitazone (ng/ml) in microdialysate: 1.9 ng/mL
  Netoglitazone (ng/ml) corrected for recovery: 17.3 ng/mL
[2]; 270-300 min after dose
  Netoglitazone (ng/ml) in microdialysate: 2.8 ng/mL
  Netoglitazone (ng/ml) corrected for recovery: 25.5 ng/mL
[2]; 300-330 min after dose
  Netoglitazone (ng/ml) in microdialysate: 3.3 ng/mL
  Netoglitazone (ng/ml) corrected for recovery: 30.0 ng/mL
[2]; 330-360 min after dose
  Netoglitazone (ng/ml) in microdialysate: 3.6 ng/mL
  Netoglitazone (ng/ml) corrected for recovery: 32.7 ng/mL
[2]; male, C57BL/6, mouse, brain / plasma, terminal samples shortly after 6 hours, read-out: Brain:plasma ratio
  Kp at 6 h: 0.8
[2]; male, C57BL/6, mouse, plasma, read-out: Concentration in plasma
  concentration at 6 h: 13300 ng/mL
[2]; male, C57BL/6, mouse, whole brain, read-out: Concentration in brain
  concentration at 6 h: 10300 ng/g
